Source: publication PMC7016805, “RK-33 Is a Broad-Spectrum Antiviral Agent That Targets DEAD-Box RNA Helicase DDX3X” (Cells, 2020)

Molecular target: T1, DEAD-box helicase 3 X-linked (DDX3X) (Homo sapiens, UniProt O00571)
T1 construct: residues 1–580, N-terminal 6His tag
Test: ITC (one-site model); supported by multi-wavelength AUC, ATPase assay (IC50 […]) and RNA unwinding assay (IC50 […])
Assay type: binding

T1 sequence (O00571 1-580): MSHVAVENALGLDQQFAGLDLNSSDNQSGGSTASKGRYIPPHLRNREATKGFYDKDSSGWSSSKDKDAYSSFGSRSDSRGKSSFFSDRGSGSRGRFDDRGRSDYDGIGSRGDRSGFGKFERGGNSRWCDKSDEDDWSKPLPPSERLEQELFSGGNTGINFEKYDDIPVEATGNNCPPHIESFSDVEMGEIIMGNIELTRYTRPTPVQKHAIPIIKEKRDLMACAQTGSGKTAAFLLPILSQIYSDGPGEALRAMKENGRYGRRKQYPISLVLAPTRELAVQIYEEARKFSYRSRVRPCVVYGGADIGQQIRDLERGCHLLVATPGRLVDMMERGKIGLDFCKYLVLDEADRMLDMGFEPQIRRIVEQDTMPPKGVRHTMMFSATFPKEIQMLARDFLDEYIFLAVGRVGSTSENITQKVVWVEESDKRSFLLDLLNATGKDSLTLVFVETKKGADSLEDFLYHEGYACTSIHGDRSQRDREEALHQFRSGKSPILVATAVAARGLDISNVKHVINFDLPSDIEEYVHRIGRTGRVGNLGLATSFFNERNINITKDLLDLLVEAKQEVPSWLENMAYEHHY

Kd: 33 µM
SMILES: COc1ccc(Cn2cnc3c4ncn(Cc5ccc(OC)cc5)c4nc(=O)nc32)cc1 [RK-33]
